Measurements taken from patent publication US7151093B2, “Use of sphingosine 1-phosphate as active ingredient for the treatment of pulmonary fibrosis” (Ono Pharmaceutical Co., Ltd., priority 1999, dated 2006).

System: Bleomycin-induced Lung Injury Model Animal
Assay: Bleomycin-induced lung injury model, lung tissue hydroxyproline content
Format: in vivo, ICR male mice
Procedure: Production of Bleomycin-induced Lung Injury Model Animal:
Using each of ICR male mice and under pentobarbital (60 mg/kg, i.v.) anesthesia, the cervical region was shaved and the skin was incised for about 4 mm from under the larynx region along the median line. Next, the muscle layer covering upper trachea was peeled off to expose the trachea. Using a micro-syringe, physiological saline or bleomycin hydrochloride (0.03 mg/animal, manufactured by Nippon Kayaku) was administered tracheally (50 μl/animal) from the tracheal smooth muscle region between cricoid cartilage. After the administration, the incised region was closed and antibiotics were administered into the thigh intramuscularly in order to prevent infection. S1P (10 mg/5 ml/kg, 0.5% aqueous solution of carboxymethylcellulose sodium (CMC.Na)-physiological saline, manufactured by Matreya) was intraperitoneally administered once a day for 14 days after the bleomycin induction. […]
The hydrolyzed supernatant (25 μl) was mixed with borate-alanine buffer (2.475 ml) separately prepared, and potassium chloride (solid) was added thereto until it was saturated. […] The absorbance of each sample was immediately measured at 560 nm, and the amount of hydroxyproline in the sample was calculated from a calibration curve.
The inhibition ratio was calculated by the following equation. […]

## CCCCCCCCCCCCC/C=C/[C@H](O)[C@H](N)COP(=O)(O)O (stereo in doubt) [S1P, sphingosine 1-phosphate]
[{(C−B)−(S−B)}÷(C−B)]×100, S1P 10 mg/kg i.p. once a day for 14 days, ICR male mice
  Inhibition ratio: suppression of bleomycin-induced increase of hydroxyproline content: ca. 90%
bleomycin-induced (0.03 mg/animal, tracheal) ICR male mice, S1P 10 mg/5 ml/kg i.p. once a day for 14 days, lung excised fifteen days after induction
  Hydroxyproline content: 227.8 ± 17.5 μg/lung
